Measured values taken from ChEMBL document CHEMBL4680379, “Structure-based Discovery of Cell-Potent Peptidomimetic Inhibitors for Protein N-Terminal Methyltransferase 1” (ACS Med Chem Lett, 2021).
pIC50: −log10 of the molar value. One block for each molecule: values may come before it. Calls of active or inactive are those of the source. The calls are words filed in the database; no cut-off is given here.

Experiments:
Homo sapiens [1] = organism: Homo sapiens; experiment: Selectivity for recombinant human N-terminal His6-tagged NTMT1 (1 to 222 residues) expressed in Escherichia coli BL21-CodonPlus(DE3)-RIL over PRMT1 (unknown origin)
HT-29 [2] = experiment: Cytotoxicity against human HT29 cells assessed as reduction in cell viability up to 1 mM incubated for 48 hrs by resazurin-dye based alamar blue assay; conditions: ht-29, 48 h
HT-29 [3] = experiment: Cytotoxicity against human HT29 cells assessed as reduction in cell viability up to 1 mM incubated for 72 hrs by resazurin-dye based alamar blue assay; conditions: ht-29, 72 h
[4] = target: T1, N-terminal Xaa-Pro-Lys N-methyltransferase 1 (Homo sapiens) (UniProt Q9BV86); experiment: Inhibition of NTMT1 in human HCT116 cells assessed as decrease in me3-SPK level at 100 uM incubated for 3 days by Western blot analysis relative to control; type: cell-based; conditions: HCT-116, time 3.0 day
T1 sequence (whole entry): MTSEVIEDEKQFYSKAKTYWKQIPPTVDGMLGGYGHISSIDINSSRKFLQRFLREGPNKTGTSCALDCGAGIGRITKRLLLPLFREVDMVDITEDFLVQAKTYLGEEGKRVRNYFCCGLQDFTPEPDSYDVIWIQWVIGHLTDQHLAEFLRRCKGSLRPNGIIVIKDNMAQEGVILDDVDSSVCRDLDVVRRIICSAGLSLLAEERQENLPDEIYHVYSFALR

[5] = target: T2, Histone-lysine N-methyltransferase EHMT2 (Homo sapiens) (UniProt Q96KQ7); experiment: Inhibition of human His-tagged G9a (913 to 1193 residues) expressed in Escherichia coli BL21-CodonPlus(DE3)-RIL at 100 uM using H3-21 peptide as substrate preincubated for 10 mins in presence of SAM followed by substrate addition by SAHH-coupled fluorescence assay relative to control
T2 sequence (whole entry): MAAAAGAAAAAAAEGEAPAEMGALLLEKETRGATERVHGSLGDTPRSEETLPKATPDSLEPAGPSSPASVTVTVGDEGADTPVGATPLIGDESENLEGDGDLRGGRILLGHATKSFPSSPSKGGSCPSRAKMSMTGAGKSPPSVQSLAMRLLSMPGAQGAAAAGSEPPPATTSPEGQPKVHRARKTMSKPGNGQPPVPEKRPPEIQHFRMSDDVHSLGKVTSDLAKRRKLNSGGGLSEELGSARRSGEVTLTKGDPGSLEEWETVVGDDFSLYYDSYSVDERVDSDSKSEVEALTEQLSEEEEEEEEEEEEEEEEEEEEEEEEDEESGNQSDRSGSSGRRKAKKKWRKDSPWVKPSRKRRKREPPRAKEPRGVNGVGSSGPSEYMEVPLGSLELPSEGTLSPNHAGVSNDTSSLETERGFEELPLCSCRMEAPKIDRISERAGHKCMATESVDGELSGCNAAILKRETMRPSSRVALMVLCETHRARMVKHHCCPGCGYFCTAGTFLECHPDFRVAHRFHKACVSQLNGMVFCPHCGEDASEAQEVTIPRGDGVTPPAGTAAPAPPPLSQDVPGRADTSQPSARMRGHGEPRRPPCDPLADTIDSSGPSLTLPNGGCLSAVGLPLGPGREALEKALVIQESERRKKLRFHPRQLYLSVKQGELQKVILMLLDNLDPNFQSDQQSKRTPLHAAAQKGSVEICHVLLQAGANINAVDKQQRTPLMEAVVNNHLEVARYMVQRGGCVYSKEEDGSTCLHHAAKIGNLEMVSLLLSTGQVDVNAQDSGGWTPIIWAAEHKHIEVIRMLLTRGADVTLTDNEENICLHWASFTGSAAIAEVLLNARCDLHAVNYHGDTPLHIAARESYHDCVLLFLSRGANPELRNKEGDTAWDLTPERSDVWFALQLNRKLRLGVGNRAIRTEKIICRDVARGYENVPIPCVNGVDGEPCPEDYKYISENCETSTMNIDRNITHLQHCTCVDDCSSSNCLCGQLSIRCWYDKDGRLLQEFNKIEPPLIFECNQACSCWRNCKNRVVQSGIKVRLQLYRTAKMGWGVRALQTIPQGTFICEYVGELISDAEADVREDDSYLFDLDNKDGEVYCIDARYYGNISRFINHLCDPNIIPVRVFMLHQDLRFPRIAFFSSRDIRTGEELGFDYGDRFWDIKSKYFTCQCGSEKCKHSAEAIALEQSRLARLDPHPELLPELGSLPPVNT

[6] = target: Protein arginine N-methyltransferase 1 (Homo sapiens) (UniProt Q99873); experiment: Inhibition of PRMT1 (unknown origin) at 100 uM using H4-21 peptide as substrate preincubated for 10 mins in presence of SAM followed by substrate addition by SAHH-coupled fluorescence assay relative to control
[7] = target: T1, N-terminal Xaa-Pro-Lys N-methyltransferase 1 (Homo sapiens); experiment: Inhibition of NTMT1 in human HT29 cells assessed as decrease in me3-RCC1 level at 100 uM incubated for 3 days by Western blot analysis; type: cell-based; conditions: HT-29, time 3.0 day
[8] = target: T1, N-terminal Xaa-Pro-Lys N-methyltransferase 1 (Homo sapiens); experiment: Inhibition of NTMT1 in human HCT116 cells assessed as decrease in me3-RCC1 level at 100 uM incubated for 3 days by Western blot analysis; type: cell-based; conditions: HCT-116, time 3.0 day
[9] = target: Protein arginine N-methyltransferase 3 (Homo sapiens) (UniProt O60678); experiment: Inhibition of PRMT3 (unknown origin) at 100 uM relative to control
Homo sapiens [10] = organism: Homo sapiens; experiment: Selectivity for recombinant human N-terminal His6-tagged NTMT1 (1 to 222 residues) expressed in Escherichia coli BL21-CodonPlus(DE3)-RIL over His-tagged SETD7 (unknown origin)
HCT-116 [11] = experiment: Cytotoxicity against human HCT116 cells assessed as reduction in cell viability up to 1 mM incubated for 72 hrs by resazurin-dye based alamar blue assay; conditions: hct-116, 72 h
[12] = target: T3, N-terminal Xaa-Pro-Lys N-methyltransferase 1 (Homo sapiens, UniProt Q9BV86); experiment: Inhibition of NTMT1 in human HCT116 cells assessed as decrease in me3-RCC1 level incubated for 3 days by Western blot analysis; type: cell-based, HCT-116
T3 sequence (Q9BV86 whole entry): T1 sequence (whole entry)

Homo sapiens [13] = organism: Homo sapiens; experiment: Selectivity for recombinant human N-terminal His6-tagged NTMT1 (1 to 222 residues) expressed in Escherichia coli BL21-CodonPlus(DE3)-RIL over SAHH (unknown origin)
Trypanosoma brucei = experiment: Inhibition of Trypanosoma brucei N-terminal His6-tagged PRMT7 expressed in Escherichia coli BL21-CodonPlus(DE3)-RIL at 100 uM using H4-21 peptide as substrate preincubated for 10 mins in presence of SAM followed by substrate addition by SAHH-coupled fluorescence assay relative to control
HCT-116 [14] = experiment: Cytotoxicity against human HCT116 cells assessed as reduction in cell viability up to 1 mM incubated for 48 hrs by resazurin-dye based alamar blue assay; conditions: hct-116, 48 h
[15] = Selectivity for recombinant human N-terminal His6-tagged NTMT1 (1 to 222 residues) expressed in Escherichia coli BL21-CodonPlus(DE3)-RIL over Trypanosoma brucei N-terminal His6-tagged PRMT7 expressed in Escherichia coli BL21-CodonPlus(DE3)-RIL
Homo sapiens [16] = organism: Homo sapiens; experiment: Selectivity for recombinant human N-terminal His6-tagged NTMT1 (1 to 222 residues) expressed in Escherichia coli BL21-CodonPlus(DE3)-RIL over human His-tagged G9a (913 to 1193 residues) expressed in Escherichia coli BL21-CodonPlus(DE3)-RIL
Homo sapiens [17] = organism: Homo sapiens; experiment: Selectivity for recombinant human N-terminal His6-tagged NTMT1 (1 to 222 residues) expressed in Escherichia coli BL21-CodonPlus(DE3)-RIL over PRMT3 (unknown origin)
[18] = target: T4, Histone-lysine N-methyltransferase SETD7 (Homo sapiens) (UniProt Q8WTS6); experiment: Inhibition of His-tagged SETD7 (unknown origin) at 100 uM using H3-21 peptide as substrate preincubated for 10 mins in presence of SAM followed by substrate addition by SAHH-coupled fluorescence assay relative to control
T4 sequence (whole entry): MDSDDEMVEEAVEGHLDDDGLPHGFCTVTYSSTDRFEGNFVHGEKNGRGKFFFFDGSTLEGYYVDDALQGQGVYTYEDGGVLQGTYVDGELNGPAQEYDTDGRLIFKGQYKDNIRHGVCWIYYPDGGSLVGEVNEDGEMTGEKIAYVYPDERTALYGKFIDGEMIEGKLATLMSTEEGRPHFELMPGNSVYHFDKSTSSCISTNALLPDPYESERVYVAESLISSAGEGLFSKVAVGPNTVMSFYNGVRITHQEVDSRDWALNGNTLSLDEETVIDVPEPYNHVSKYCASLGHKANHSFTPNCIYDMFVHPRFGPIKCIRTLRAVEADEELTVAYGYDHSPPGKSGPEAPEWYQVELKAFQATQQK

HCT-116 [19] = experiment: Cytotoxicity against human HCT116 cells assessed as reduction in cell viability up to 1 mM incubated for 24 hrs by resazurin-dye based alamar blue assay; conditions: hct-116, 24 h
HT-29 [20] = experiment: Cytotoxicity against human HT29 cells assessed as reduction in cell viability up to 1 mM incubated for 24 hrs by resazurin-dye based alamar blue assay; conditions: ht-29, 24 h
[21] = target: T1, N-terminal Xaa-Pro-Lys N-methyltransferase 1 (Homo sapiens); experiment: Inhibition of NTMT1 in human HCT116 cells assessed as decrease in me3-SPK level at 1 mM incubated for 3 days by Western blot analysis relative to control; type: cell-based; conditions: HCT-116, time 3.0 day
[22] = target: Adenosylhomocysteinase (Homo sapiens) (UniProt P23526); experiment: Inhibition of SAHH (unknown origin) at 100 uM relative to control
[23] = target: T1, N-terminal Xaa-Pro-Lys N-methyltransferase 1 (Homo sapiens); experiment: Inhibition of NTMT1 in human HCT116 cells assessed as decrease in me3-SPK level at 300 uM incubated for 3 days by Western blot analysis relative to control; type: cell-based; conditions: HCT-116, time 3.0 day
[24] = target: T3, N-terminal Xaa-Pro-Lys N-methyltransferase 1; experiment: Inhibition of NTMT1 in human HT29 cells assessed as decrease in me3-RCC1 level incubated for 3 days by Western blot analysis; type: cell-based, HT-29
[25] = target: T3, N-terminal Xaa-Pro-Lys N-methyltransferase 1; experiment: Inhibition of recombinant human N-terminal His6-tagged NTMT1 (1 to 222 residues) expressed in Escherichia coli BL21-CodonPlus(DE3)-RIL using GPKRIA peptide and SAM as substrate pre-incubated for 10 mins in presence of SAM followed by substrate addition by SAHH coupled fluorescence assay
Trypsin = Trypsin (Homo sapiens, UniProt P07477+P07478+P35030); experiment: Stability of compound assessed as trypsin (unknown origin) mediated compound hydrolysis at 10 uM incubated for 1 hr by MALDI-MS analysis; type: ADME, protein assay

Chain of Protein arginine N-methyltransferase 1 (Homo sapiens) (Q99873 whole entry, looked up): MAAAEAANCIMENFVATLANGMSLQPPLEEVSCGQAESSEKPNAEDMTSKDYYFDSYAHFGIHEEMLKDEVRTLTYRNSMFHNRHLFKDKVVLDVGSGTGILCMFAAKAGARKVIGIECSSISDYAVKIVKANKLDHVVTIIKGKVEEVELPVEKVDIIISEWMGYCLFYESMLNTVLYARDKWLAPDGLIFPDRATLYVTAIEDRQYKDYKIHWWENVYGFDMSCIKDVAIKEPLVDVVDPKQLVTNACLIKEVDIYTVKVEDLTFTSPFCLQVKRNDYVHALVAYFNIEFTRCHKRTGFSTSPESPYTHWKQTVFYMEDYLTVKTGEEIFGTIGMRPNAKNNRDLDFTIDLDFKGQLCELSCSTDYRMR
Chain of Protein arginine N-methyltransferase 3 (Homo sapiens) (O60678 2-531 limits assumed): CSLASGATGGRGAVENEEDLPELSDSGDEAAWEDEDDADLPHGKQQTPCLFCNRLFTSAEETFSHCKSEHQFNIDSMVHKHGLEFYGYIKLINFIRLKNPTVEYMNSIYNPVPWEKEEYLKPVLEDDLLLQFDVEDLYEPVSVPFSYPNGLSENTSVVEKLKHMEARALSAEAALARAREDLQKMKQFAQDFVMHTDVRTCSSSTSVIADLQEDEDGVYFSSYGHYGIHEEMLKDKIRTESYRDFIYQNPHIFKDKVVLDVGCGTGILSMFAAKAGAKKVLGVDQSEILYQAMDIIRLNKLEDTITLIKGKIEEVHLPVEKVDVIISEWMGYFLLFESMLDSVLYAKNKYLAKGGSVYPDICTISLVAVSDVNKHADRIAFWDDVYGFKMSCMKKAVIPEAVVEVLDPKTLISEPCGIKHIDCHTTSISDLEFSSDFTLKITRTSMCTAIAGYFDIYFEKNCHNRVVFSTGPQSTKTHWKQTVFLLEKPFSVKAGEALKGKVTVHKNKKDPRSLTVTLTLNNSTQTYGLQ
Chain of Adenosylhomocysteinase (Homo sapiens) (P23526 2-432 limits assumed): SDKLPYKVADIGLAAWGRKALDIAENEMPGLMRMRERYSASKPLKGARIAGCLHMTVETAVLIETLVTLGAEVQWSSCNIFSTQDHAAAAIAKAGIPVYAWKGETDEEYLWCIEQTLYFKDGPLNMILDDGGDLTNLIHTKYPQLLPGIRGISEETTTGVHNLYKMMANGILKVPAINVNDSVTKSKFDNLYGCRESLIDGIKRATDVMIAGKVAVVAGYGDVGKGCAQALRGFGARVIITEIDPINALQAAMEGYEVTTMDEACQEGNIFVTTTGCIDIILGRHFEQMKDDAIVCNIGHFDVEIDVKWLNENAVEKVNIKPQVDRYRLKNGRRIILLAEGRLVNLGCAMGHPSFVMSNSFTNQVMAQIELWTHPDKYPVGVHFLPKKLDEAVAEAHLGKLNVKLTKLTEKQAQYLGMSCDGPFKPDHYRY

SMILES: NCCCC[C@H](NC(=O)[C@@H]1CCCN1C(=O)Cc1cccc2ccccc12)C(=O)Nc1ccccc1C(N)=O
Selectivity ratio (Homo sapiens [1]): > 300
Activity (HT-29 [2]): Non-Toxic
Activity (HT-29 [3]): Non-Toxic
inhibition [4]: 61%
inhibition [5]: < 50%
inhibition [6]: < 50%
inhibition [7]: Active
inhibition [8]: Active
inhibition [9]: < 50%
Selectivity ratio (Homo sapiens [10]): > 300
Activity (HCT-116 [11]): Non-Toxic
pIC50 [12]: 4.00
Selectivity ratio (Homo sapiens [13]): > 300
inhibition (Trypanosoma brucei): < 50%
Activity (HCT-116 [14]): Non-Toxic
Selectivity ratio [15]: > 300
Selectivity ratio (Homo sapiens [16]): > 300
Selectivity ratio (Homo sapiens [17]): > 300
inhibition [18]: < 50%
Activity (HCT-116 [19]): Non-Toxic
Activity (HT-29 [20]): Non-Toxic
inhibition [21]: 100%
inhibition [22]: < 50%
inhibition [23]: 90%
pIC50 [24]: 4.52

SMILES: CN(C(=O)[C@H](CCCCN)NC(=O)[C@@H]1CCCN1C(=O)Cc1cccc2ccccc12)[C@@H](CCCNC(=N)N)C(N)=O
Stabilty (Trypsin): Stable

SMILES: CN(C(=O)[C@H](CCCCN)NC(=O)[C@@H]1CCCN1C(=O)Cc1cccc2ccccc12)[C@@H](CCCCN)C(N)=O
inhibition [4]: 0%
pIC50 [25]: 6.33
Stabilty (Trypsin): Stable
inhibition [21]: 100%
inhibition [23]: 48%

Next, values leading:

pIC50 [25]: 5.38
SMILES: NCCCC[C@H](NC(=O)[C@@H]1CCCN1C(=O)Cc1cccc2ccccc12)C(=O)N[C@@H](CCC(=O)O)C(N)=O

inhibition [4]: 0%
pIC50 [25]: 6.24
Stabilty (Trypsin): Stable
inhibition [21]: 70%
inhibition [23]: 3%
SMILES: C[C@@H](C(N)=O)N(C)C(=O)[C@H](CCCCN)NC(=O)[C@@H]1CCCN1C(=O)Cc1cccc2ccccc12
